Here are results for one compound from paper PMC6930524, “A Prospective Repurposing of Dantrolene as a Multitarget Agent for Alzheimer’s Disease” (Molecules, 2019).

One data set can be described thus: physchem. Conditions: pH 7.4. As to the method:
In order to check the hydrolytic stability of DAN in buffered media, we used a HPLC method to check the stability of 20 μM DAN in phosphate buffered saline (PBS) at physiological pH of 7.4, at 37 °C.
The chromatographic data were acquired using the Waters Breeze software (version 3.20). Analyses were performed on a Phenomenex C18 column (150 × 4.6 mm i.d., 3 µm particle size; Phenomenex srl, Castel Maggiore, Italy) using a mobile phase of methanol/water (75:25 v/v), with aqueous formic acid 0.1%. The used flow rate was 0.5 mL/min and the injection volume was 20 µL. Wavelength UV-Vis detector was set at 380 nm.
The chemical stability of dantrolene sodium was evaluated in a phosphate buffered saline solution pH 7.4 (10 mM HPO4^2−/H2PO4^−, 100 mM NaCl) at 37 °C. Samples were tested in triplicate starting from three different stocks solution (1 mM), which were prepared separately.

Another data set deals with T1, human MAO B (hMAO B) (Homo sapiens, UniProt P27338).
T1 construct: purchased Sigma-Aldrich Europe (Milan, Italy); host or cells: baculovirus infected insect cells (microsomes)
T1 sequence (P27338 1-520): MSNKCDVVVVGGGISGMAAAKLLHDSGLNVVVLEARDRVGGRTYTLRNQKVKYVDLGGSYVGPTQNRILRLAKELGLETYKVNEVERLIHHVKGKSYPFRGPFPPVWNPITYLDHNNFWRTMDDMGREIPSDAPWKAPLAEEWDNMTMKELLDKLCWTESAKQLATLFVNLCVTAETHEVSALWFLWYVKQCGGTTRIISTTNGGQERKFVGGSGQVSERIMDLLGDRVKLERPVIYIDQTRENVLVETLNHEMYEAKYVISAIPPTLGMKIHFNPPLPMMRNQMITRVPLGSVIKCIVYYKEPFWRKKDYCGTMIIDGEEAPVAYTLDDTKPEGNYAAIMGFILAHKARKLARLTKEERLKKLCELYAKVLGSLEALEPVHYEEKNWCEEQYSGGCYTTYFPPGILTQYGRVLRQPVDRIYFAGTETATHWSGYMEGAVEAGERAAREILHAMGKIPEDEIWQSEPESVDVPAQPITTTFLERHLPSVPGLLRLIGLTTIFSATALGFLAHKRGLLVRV
As to the kind of experiment: biochemical.

In a further data set the test system is SH-SY5Y cells. Kind of data set: DCF-DA assay of dopamine-induced ROS production. It counts as cell-based. As to conditions: dopamine 10 nM insult, compound 100 nM. As to the method: In order to get further information about the potential neuroprotective effects exerted by DAN, we tested it in a 2′,7′-dichlorofluorescin diacetate (DCF-DA) fluorescence-based assay, measuring the production of ROS induced by dopamine in cultured SH-SY5Y cells. Immortalized neuroblastoma cells are a widely used model for neuroprotection assays, while dopamine at a concentration of 10 nM acts as an inducer of oxidative stress, being metabolized by MAOs to form hydrogen peroxide. Once hydrolyzed and oxidized, DCF acts as the fluorescing probe of the OS state of cells. In the presence of an antioxidant, or even of a MAO inhibitor, ROS burden is lowered and DCF fluorescence decreased. […] Its activity is completely superimposable to that of phenelzine, a nonselective MAO inhibitor used as a positive control in Figure 5B [41]. […]
ROS production in SH-SY5Y cell line was detected using Cellular Reactive Oxygen Species Detection Assay Kit ([…]; Abcam, Cambridge, UK). […] After washing, the fluorescence was read immediately, and the readings were taken every 15 min in a 60-min time interval. Fluorescence signal at 535 nm (excitation at 485 nm) was measured using Tecan Infinite M1000 Pro (Tecan, Mannedorf, Switzerland).

Details of data set [1]: method as in PMID 11735355. As to conditions: cited from earlier work.

Source text for human MAO B (hMAO B): Routine kynuramine fluorescence [29] and Ellman’s spectrophotometric [30, 31] assays were used for in vitro inhibition of human MAO B (hMAO B) and acetylcholinesterase (hAChE), respectively. Selectivity over the corresponding isoforms hMAO A and butyrylcholinesterase (hBChE) was also verified.
An already published protocol using human recombinant monoamine oxidases A (250 U/mg) and B (59 U/mg; microsomes from baculovirus infected insect cells) [29] was used by applying a 96-well plate technique (instrument Infinite M1000 Pro, Tecan, Cernusco s.N., Italy). Briefly, compounds at a concentration ranging from 30 to 0.01 μM were preincubated 20 min at 37 °C with substrate kynuramine, in phosphate buffer 8.0 made 0.39 osmolar with KCl. After addition of enzyme and further 30 min of incubation, NaOH was added and the fluorescence read at 310/400 excitation/emission wavelength. Experiments were performed in duplicates in black, flat-bottomed polystyrene 96-well microtiter plates (Greiner Bio-One GmbH, Frickenhausen, Germany). […] Inhibition values and kinetics were calculated by means of Prism (GraphPad Prism version 5.00 for Windows, GraphPad Software, San Diego, CA, USA).

The compound `O=C1CN(/N=C/c2ccc(-c3ccc([N+](=O)[O-])cc3)o2)C(O)=N1` [Dantrolene] came in with a recovery at 60 h, 20 μM in “physchem” of 92%. For the same compound, at human MAO B (hMAO B), the IC50 was found to be 2.69 ± 0.44 µM. Also, the “hMAO B inhibition mechanism” value at human MAO B (hMAO B) (Michaelis–Menten / Lineweaver–Burk, substrate kynuramine) is listed as “comp”. Besides, at human MAO B (hMAO B) (substrate kynuramine, mean ± SEM), the inhibition constant (Ki) stood at 0.96 ± 0.09 µM. For the same compound, the “reduction of ROS oxidation of DCF” value with SH-SY5Y cells is listed as “very effective”. In data set [1], the “antioxidant potency, inhibition of Fe2+/thiocyanate peroxidation of linoleic acid” value is “high antioxidant potency”.
